Experimental data from patent US11713338B2, “Cyclic peptides multimers targeting α-4-β-7 integrin” (priority 2016, dated 2023).

What was measured:
[1] = target: T1, integrin α4β7 (RPMI8866 human cells adhering to MAdCAM-1) (Homo sapiens, UniProt P13612+P26010); assay: Integrin α4β7-MAdCAM cell adhesion assay (RPMI8866 cells); type: cell-based; conditions: RPMI8866 cells adhering to MAdCAM; read-out: RPMI8866 Adhesion α4β7/MAdCAM IC50
T1 construct: RMP18866 cells, which express integrin α4β7; host or cells: RPMI8866
T1 sequence (P13612 34-1032): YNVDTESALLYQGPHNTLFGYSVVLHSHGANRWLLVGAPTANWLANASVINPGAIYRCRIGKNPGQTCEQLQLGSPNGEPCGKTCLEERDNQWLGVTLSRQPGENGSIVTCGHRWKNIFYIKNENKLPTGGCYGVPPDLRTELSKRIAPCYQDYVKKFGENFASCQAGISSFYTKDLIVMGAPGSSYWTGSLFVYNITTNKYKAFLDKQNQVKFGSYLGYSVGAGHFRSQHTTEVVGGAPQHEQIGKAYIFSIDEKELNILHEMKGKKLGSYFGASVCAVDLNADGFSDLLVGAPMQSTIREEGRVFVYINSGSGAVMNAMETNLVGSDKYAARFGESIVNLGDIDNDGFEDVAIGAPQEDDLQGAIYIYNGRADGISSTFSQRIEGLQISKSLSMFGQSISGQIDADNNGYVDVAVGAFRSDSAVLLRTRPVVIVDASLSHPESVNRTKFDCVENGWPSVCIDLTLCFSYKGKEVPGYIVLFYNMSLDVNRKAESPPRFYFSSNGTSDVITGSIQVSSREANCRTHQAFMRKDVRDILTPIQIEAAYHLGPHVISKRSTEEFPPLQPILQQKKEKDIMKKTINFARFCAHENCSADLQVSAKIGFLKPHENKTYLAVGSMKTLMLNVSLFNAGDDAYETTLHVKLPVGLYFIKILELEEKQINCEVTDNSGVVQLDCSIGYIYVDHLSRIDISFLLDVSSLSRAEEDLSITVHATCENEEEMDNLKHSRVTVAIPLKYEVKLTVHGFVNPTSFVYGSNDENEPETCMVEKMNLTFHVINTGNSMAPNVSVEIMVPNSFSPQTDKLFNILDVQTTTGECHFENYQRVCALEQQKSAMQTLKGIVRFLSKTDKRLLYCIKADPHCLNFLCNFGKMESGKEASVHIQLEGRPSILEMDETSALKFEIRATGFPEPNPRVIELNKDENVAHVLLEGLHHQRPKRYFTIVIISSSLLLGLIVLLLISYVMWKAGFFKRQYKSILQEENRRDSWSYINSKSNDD
T1 sequence (P26010 20-798): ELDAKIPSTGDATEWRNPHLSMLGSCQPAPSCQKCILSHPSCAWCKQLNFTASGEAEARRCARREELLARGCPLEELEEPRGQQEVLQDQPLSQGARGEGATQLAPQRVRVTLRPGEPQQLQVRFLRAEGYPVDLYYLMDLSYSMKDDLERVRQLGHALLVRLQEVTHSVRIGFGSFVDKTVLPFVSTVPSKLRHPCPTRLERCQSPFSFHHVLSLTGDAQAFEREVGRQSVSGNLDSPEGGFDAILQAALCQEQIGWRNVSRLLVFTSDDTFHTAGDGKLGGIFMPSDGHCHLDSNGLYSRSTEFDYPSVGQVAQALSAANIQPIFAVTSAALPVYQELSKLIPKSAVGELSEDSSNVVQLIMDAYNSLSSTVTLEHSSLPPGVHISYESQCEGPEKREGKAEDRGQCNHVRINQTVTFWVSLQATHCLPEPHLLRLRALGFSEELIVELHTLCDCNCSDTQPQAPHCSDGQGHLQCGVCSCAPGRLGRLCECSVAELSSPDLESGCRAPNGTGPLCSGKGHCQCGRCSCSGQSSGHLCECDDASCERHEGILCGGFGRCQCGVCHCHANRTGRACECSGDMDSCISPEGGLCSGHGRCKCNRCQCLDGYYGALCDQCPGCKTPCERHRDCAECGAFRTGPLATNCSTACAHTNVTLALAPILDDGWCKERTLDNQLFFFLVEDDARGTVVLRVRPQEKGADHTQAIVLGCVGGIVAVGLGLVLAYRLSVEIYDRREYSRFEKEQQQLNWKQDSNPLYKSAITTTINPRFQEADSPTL
Procedure, shortened: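 Adhesion was read by calcein fluorescence. RPMI8866 cells were labelled at 10 million cells/ml with […] calcein (37° C., 30 min) and washed twice in PBS before reading. Dose-response values were corrected by subtracting cell-free control well fluorescence.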

[2] = target: T2, integrin α4β1 (RAMOS human cells adhering to VCAM-1) (Homo sapiens, UniProt P05556+P13612); assay: Integrin α4β1-VCAM cell adhesion assay (RAMOS cells); type: cell-based; conditions: for IC50: Ramos cells adhering to VCAM, read-out: Ramos Adhesion α4β1/VCAM IC50; for Ratio Ramos/RPMI: ratio of cell adhesion IC50s, Ramos α4β1/VCAM over RPMI8866 α4β7/MAdCAM
T2 construct: Ramos cells, which express integrin α4β1; host or cells: RAMOS
T2 sequence (P05556 21-798, one chain of several): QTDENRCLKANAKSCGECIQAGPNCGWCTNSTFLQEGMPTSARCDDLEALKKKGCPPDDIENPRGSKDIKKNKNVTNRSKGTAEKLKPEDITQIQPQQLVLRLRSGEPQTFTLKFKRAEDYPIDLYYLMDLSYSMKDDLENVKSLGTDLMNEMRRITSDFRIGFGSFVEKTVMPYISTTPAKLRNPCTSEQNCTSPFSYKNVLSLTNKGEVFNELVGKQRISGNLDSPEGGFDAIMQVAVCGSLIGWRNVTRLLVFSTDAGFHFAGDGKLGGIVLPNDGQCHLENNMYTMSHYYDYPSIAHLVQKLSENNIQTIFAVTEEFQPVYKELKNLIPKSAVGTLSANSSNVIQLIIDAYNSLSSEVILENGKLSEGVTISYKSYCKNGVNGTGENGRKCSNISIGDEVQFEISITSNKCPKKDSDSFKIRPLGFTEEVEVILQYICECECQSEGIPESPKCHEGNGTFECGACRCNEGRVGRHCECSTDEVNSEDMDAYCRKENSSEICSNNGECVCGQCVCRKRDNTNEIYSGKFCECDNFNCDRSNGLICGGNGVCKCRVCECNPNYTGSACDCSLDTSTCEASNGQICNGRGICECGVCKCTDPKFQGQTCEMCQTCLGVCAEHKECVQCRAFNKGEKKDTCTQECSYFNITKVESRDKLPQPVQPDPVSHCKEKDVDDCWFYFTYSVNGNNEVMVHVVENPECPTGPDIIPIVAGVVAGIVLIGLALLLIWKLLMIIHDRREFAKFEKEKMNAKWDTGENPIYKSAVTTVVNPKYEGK
Procedure, shortened: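 Human RAMOS cells loaded with calcein ([…] in PBS, 37° C, 30 min) allowed to adhere to VCAM-1-coated wells blocked with 1% milk. After PBS washes, adherent-cell fluorescence measured and cell-free well background subtracted to build dose-response.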

Compound | IC50 [1] [nM] | IC50 [2] [nM] | Ratio Ramos/RPMI [2]
CC(C)C[C@@H]1NC(=O)c2ccc(-c3ccc(N4CCN(C(=O)[C@H](CCCCNC(=O)CCCCCC(=O)NCCCC[C@H](NC(=O)OCc5ccccc5)C(=O)N5CCN(c6ccc(-c7ccc8cc7CNC(=O)[C@@H]7CCCN7[C@H](C(=O)NC(C)(C)C)[C@H](C)NC(=O)[C@H]([C@@H](C)O)NC(=O)[C@H](CC(=O)O)NC(=O)[C@H](CC(C)C)NC8=O)cc6)CC5)NC(=O)OCc5ccccc5)CC4)cc3)c(c2)CNC(=O)[C@@H]2CCCN2[C@H](C(=O)NC(C)(C)C)[C@H](C)NC(=O)[C@H]([C@@H](C)O)NC(=O)[C@H](CC(=O)O)NC1=O [Compound 498] | 36 | 1360 | –
CC(C)C[C@@H]1NC(=O)c2ccc(-c3ccc(N4CCN(Cc5cccc(CN6CCN(c7ccc(-c8ccc9cc8CNC(=O)[C@@H]8CCCN8[C@H](C(=O)NC(C)(C)C)[C@H](C)NC(=O)[C@H]([C@@H](C)O)NC(=O)[C@H](CC(=O)O)NC(=O)[C@H](CC(C)C)NC9=O)cc7)CC6)c5)CC4)cc3)c(c2)CNC(=O)[C@@H]2CCCN2[C@H](C(=O)NC(C)(C)C)[C@H](C)NC(=O)[C@H]([C@@H](C)O)NC(=O)[C@H](CC(=O)O)NC1=O [Compound 499] | 42 | 878 | 21
CC(C)C[C@@H]1NC(=O)c2ccc(-c3ccc(N4CCN(Cc5ccc(CN6CCN(c7ccc(-c8ccc9cc8CNC(=O)[C@@H]8CCCN8[C@H](C(=O)NC(C)(C)C)[C@H](C)NC(=O)[C@H]([C@@H](C)O)NC(=O)[C@H](CC(=O)O)NC(=O)[C@H](CC(C)C)NC9=O)cc7)CC6)cc5)CC4)cc3)c(c2)CNC(=O)[C@@H]2CCCN2[C@H](C(=O)NC(C)(C)C)[C@H](C)NC(=O)[C@H]([C@@H](C)O)NC(=O)[C@H](CC(=O)O)NC1=O [Compound 500] | 32 | 1000 | 31
CC(C)C[C@@H]1NC(=O)c2ccc(-c3ccc(N4CCN(C(=O)CCOCCOCCNC(=O)CCCCCC(=O)NCCOCCOCCC(=O)N5CCN(c6ccc(-c7ccc8cc7CNC(=O)[C@@H]7CCCN7[C@H](C(=O)NC(C)(C)C)[C@H](C)NC(=O)[C@H]([C@@H](C)O)NC(=O)[C@H](CC(=O)O)NC(=O)[C@H](CC(C)C)NC8=O)cc6)CC5)CC4)cc3)c(c2)CNC(=O)[C@@H]2CCCN2[C@H](C(=O)NC(C)(C)C)[C@H](C)NC(=O)[C@H]([C@@H](C)O)NC(=O)[C@H](CC(=O)O)NC1=O [Compound 505] | 59 | 1780 | 30
CC(C)C[C@@H]1NC(=O)c2ccc(-c3ccc(N4CCN(C(=O)CCOCCOCCOCCOCCOCCOCCOCCOCCOCCOCCC(=O)N5CCN(c6ccc(-c7ccc8cc7CNC(=O)[C@@H]7CCCN7[C@H](C(=O)NC(C)(C)C)[C@H](C)NC(=O)[C@H]([C@@H](C)O)NC(=O)[C@H](CC(=O)O)NC(=O)[C@H](CC(C)C)NC8=O)cc6)CC5)CC4)cc3)c(c2)CNC(=O)[C@@H]2CCCN2[C@H](C(=O)NC(C)(C)C)[C@H](C)NC(=O)[C@H]([C@@H](C)O)NC(=O)[C@H](CC(=O)O)NC1=O [Compound 511] | 30 | 3990 | 133
CC(C)C[C@@H]1NC(=O)c2ccc(-c3ccc(N4CCN(Cc5cc(CN6CCN(c7ccc(-c8ccc9cc8CNC(=O)[C@@H]8CCCN8[C@H](C(=O)NC(C)(C)C)[C@H](C)NC(=O)[C@H]([C@@H](C)O)NC(=O)[C@H](CC(=O)O)NC(=O)[C@H](CC(C)C)NC9=O)cc7)CC6)cc(CN6CCN(c7ccc(-c8ccc9cc8CNC(=O)[C@@H]8CCCN8[C@H](C(=O)NC(C)(C)C)[C@H](C)NC(=O)[C@H]([C@@H](C)O)NC(=O)[C@H](CC(=O)O)NC(=O)[C@H](CC(C)C)NC9=O)cc7)CC6)c5)CC4)cc3)c(c2)CNC(=O)[C@@H]2CCCN2[C@H](C(=O)NC(C)(C)C)[C@H](C)NC(=O)[C@H]([C@@H](C)O)NC(=O)[C@H](CC(=O)O)NC1=O [Compound 518] | 18 | 947 | –
CC(C)C[C@@H]1NC(=O)C[C@H](CCCCN)N(C)C(=O)[C@H](CCCCNC(=O)CCCCCCCCC(=O)NCCCC[C@@H]2NC(=O)[C@@H]3CCCN3[C@H](C(=O)NC(C)(C)C)[C@H](C)NC(=O)[C@H]([C@@H](C)O)NC(=O)[C@H](CC(=O)O)NC(=O)[C@H](CC(C)C)NC(=O)C[C@H](CCCCN)N(C)C2=O)NC(=O)[C@@H]2CCCN2[C@H](C(=O)NC(C)(C)C)[C@H](C)NC(=O)[C@H]([C@@H](C)O)NC(=O)[C@H](CC(=O)O)NC1=O [Compound 530] | 15 | 10600 | 704
CC(C)C[C@@H]1NC(=O)C[C@H](CCCCN)N(C)C(=O)[C@H](CCCCNC(=O)CCCCCCCC(=O)NCCCC[C@@H]2NC(=O)[C@@H]3CCCN3[C@H](C(=O)NC(C)(C)C)[C@H](C)NC(=O)[C@H]([C@@H](C)O)NC(=O)[C@H](CC(=O)O)NC(=O)[C@H](CC(C)C)NC(=O)C[C@H](CCCCN)N(C)C2=O)NC(=O)[C@@H]2CCCN2[C@H](C(=O)NC(C)(C)C)[C@H](C)NC(=O)[C@H]([C@@H](C)O)NC(=O)[C@H](CC(=O)O)NC1=O [Compound 533] | 17 | 4230 | 257
CC(C)C[C@@H]1NC(=O)C[C@H](CCCCN)N(C)C(=O)[C@H](CCCCNC(=O)c2ccccc2-c2ccccc2C(=O)NCCCC[C@@H]2NC(=O)[C@@H]3CCCN3[C@H](C(=O)NC(C)(C)C)[C@H](C)NC(=O)[C@H]([C@@H](C)O)NC(=O)[C@H](CC(=O)O)NC(=O)[C@H](CC(C)C)NC(=O)C[C@H](CCCCN)N(C)C2=O)NC(=O)[C@@H]2CCCN2[C@H](C(=O)NC(C)(C)C)[C@H](C)NC(=O)[C@H]([C@@H](C)O)NC(=O)[C@H](CC(=O)O)NC1=O [Compound 535] | 15 | 9510 | 634
CC(C)C[C@@H]1NC(=O)C[C@H](CCCCN)N(C)C(=O)[C@H](CCCCNC(=O)CCOCCOCCOCCOCCOCCOCCOCCC(=O)NCCCC[C@@H]2NC(=O)[C@@H]3CCCN3[C@H](C(=O)NC(C)(C)C)[C@H](C)NC(=O)[C@H]([C@@H](C)O)NC(=O)[C@H](CC(=O)O)NC(=O)[C@H](CC(C)C)NC(=O)C[C@H](CCCCN)N(C)C2=O)NC(=O)[C@@H]2CCCN2[C@H](C(=O)NC(C)(C)C)[C@H](C)NC(=O)[C@H]([C@@H](C)O)NC(=O)[C@H](CC(=O)O)NC1=O [Compound 536] | 16 | 7820 | 479
